# Reference: ChEMBL document CHEMBL5357053, “Neopetrotaurines A-C, Isoquinoline Alkaloids with an Unprecedented Taurine Bridge from the Sponge Neopetrosia sp” (J Nat Prod, 2024)
# pIC50: −log10 of the molar value. Activity calls are given as the source filed them. No cut-off for these calls is given here.
# Experiments:
# Assay type in all cases: functional, cell-based
# SCMC = test: Downregulation of FOXO1 target gene set in human SCMC cells measured after 6 hrs by GSEA method
# [1] = Antiproliferative activity against human SCMC cells assessed as inhibition of cell viability measured after 72 hrs by IncuCyte live-cell imaging assay
# [2] = Antiproliferative activity against human Rh4 cells assessed as inhibition of cell viability measured after 72 hrs by IncuCyte live-cell imaging assay; conditions: Rh4, 72 h
# Rh4 = test: Downregulation of FOXO1 target gene set in human Rh4 cells measured after 6 hrs by GSEA method; conditions: dose 1.9 µM
Compound,Activity (SCMC),pIC50 [1],pIC50 [2],Activity (Rh4)
COC1=C(C)C(=O)c2c(cn(C)c(=O)c2NCCS(=O)(=O)Oc2c(C)c(OC)c(O)c3c[n+](C)ccc23)C1=O,inactive,5.14,5.72,inactive
COC(=O)c1cc2c(OS(=O)(=O)CCNc3c4c(cn(C)c3=O)C(=O)C(OC)=C(C)C4=O)c(C)c(OC)c(O)c2c[n+]1C,Active,4.96,5.48,Active
COC1=C(C)C(=O)c2c(cn(C)c(=O)c2NCCS(=O)(=O)Oc2c(C)c(OC)c(O)c3c[n+](C)c(C(=O)O)cc23)C1=O,inactive,5.13,5.64,inactive
